Assay results as given in patent US20230113761A1, “METHOD AND COMPOSITION FOR MIMICKING BIOLOGICAL BENEFITS OF CALORIC RESTRICTION BY ADMINISTRATION OF B-AMINOISOBUTYRIC ACID” (NANJING NUTRABUILDING BIO-TECH CO., LTD., priority 2021, published 2023).

Columns and labels:
[1] = Body weight and body composition (fat mass, lean mass, free water) of high-fat diet mice during 8 weeks of feeding intervention; assay type: in vivo; settings: for fat mass: FIG. 2
Description: (§1) Mice were divided into groups and named after the diet they consumed. Group A mice were fed ad libitum (control), Group B mice were on high-fat diet (HFD), Group C mice were fed restricted amount of the HFD diet to achieve caloric restriction (HFD+CR), and Group D mice were fed high-fat diet and supplemented with 150 mg/kg β-aminoisobutyric acid (HFD+BAIBA). All groups of mice were housed individually, and fed for months of interventions and had free access to water. Health status was monitored during the intervention.
(§2) The four groups of mice were fed for eight weeks, body weight was measured weekly, and body fat mass, lean mass and free water mass were also measured by Body Composition Analyzer to monitor body composition every week. At the end of 8 weeks of treatment, blood was collected for each group of mice, and parameters such as total cholesterol (TCHO), triglyceride (TG), low-density lipoprotein (LDL) and high-density lipoprotein (HDL) were detected. Data were collected and subject to statistical analysis.

[2] = Blood lipid parameters (TCHO, TG, LDL, HDL) of high-fat diet mice after 8 weeks of treatment; assay type: in vivo; settings: group D (HFD+BAIBA, 150 mg/kg) vs group B (HFD)
Description: as §1, §2

In the case of `CC(CN)C(=O)O` (stereo not drawn) [BAIBA, β-aminoisobutyric acid], the fat mass ([1]; group D (HFD+BAIBA, 150 mg/kg) vs group B (HFD), 8 weeks, Body Composition Analyzer) is reported as “decreased compared to group B (HFD)”, the free water content ([1]; group D (HFD+BAIBA, 150 mg/kg) vs group B (HFD), 8 weeks, FIG. 4) is reported as “significantly higher than that in group B (HFD)” and the lean mass ([1]; group D (HFD+BAIBA, 150 mg/kg) vs group C (HFD+CR), by the 8th week, FIG. 3) is reported as “significantly more than that of group C (HFD+CR)”. The fat mass ([1]; group D (HFD+BAIBA, 150 mg/kg) vs group C (HFD+CR), from week 5 of feeding intervention) was “less fat mass than group C (HFD+CR)”, the body weight ([1]; mice on high-fat diet supplemented with 150 mg/kg BAIBA (group D) vs group B (HFD), 8 weeks, measured weekly, FIG. 1) was “significantly lower than that of group B (HFD)” and the “total cholesterol (TCHO) level” value ([2]; FIG. 5) was “significantly lower than that of group B (HFD) and close to that of group C”. The “triglyceride (TG) level” value ([2]; FIG. 6) was “significantly lower than that of group B (HFD) and close to that of group C”, the “low-density lipoprotein (LDL) level” value ([2]; FIG. 7) was “significantly lower than that of group B (HFD)” and the “high-density lipoprotein (HDL) level” value ([2]; four groups not significantly different, FIG. 8) was “higher HDL levles compared to group B (HFD)”.
